Measurements as given in PubChem BioAssay (NCI).
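Grown in 96-well plates, cells were treated for 48 hours with each compound at five concentrations. Insufficient inhibition: endpoint recorded as highest concentration tested. GI50 = concentration required for 50% inhibition of growth. The concentration for full growth arrest is given as TGI.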

What was measured:
Experiment in all cases: NCI-60 cell line screen, 48 h
DU-145 prostate = test system: DU-145 prostate
ACHN renal = test system: ACHN renal
HS 578T breast = test system: HS 578T breast
NCI/ADR-RES ovarian = test system: NCI/ADR-RES ovarian
NCI-H226 lung = test system: NCI-H226 lung
UACC-257 melanoma = test system: UACC-257 melanoma
A498 renal = test system: A498 renal
HCT-116 colon = test system: HCT-116 colon
786-0 renal = test system: 786-0 renal
MOLT-4 leukemia = test system: MOLT-4 leukemia

| Compound | GI50 (DU-145 prostate) | TGI (DU-145 prostate) | GI50 (ACHN renal) | TGI (ACHN renal) | GI50 (HS 578T breast) | TGI (HS 578T breast) | GI50 (NCI/ADR-RES ovarian) | TGI (NCI/ADR-RES ovarian) | GI50 (NCI-H226 lung) | TGI (NCI-H226 lung) | GI50 (UACC-257 melanoma) | TGI (UACC-257 melanoma) | GI50 (A498 renal) | TGI (A498 renal) | GI50 (HCT-116 colon) | TGI (HCT-116 colon) | GI50 (786-0 renal) | TGI (786-0 renal) | GI50 (MOLT-4 leukemia) | TGI (MOLT-4 leukemia) |
| --- | --- | --- | --- | --- | --- | --- | --- | --- | --- | --- | --- | --- | --- | --- | --- | --- | --- | --- | --- | --- |
| CO/N=C(\COc1ccc2oc(-c3ccccc3)cc(=O)c2c1)c1ccc(F)cc1 | 25 µM | 76.5 µM | 17.2 µM | 34.5 µM | 23.2 µM | 71 µM | 21 µM | 49.9 µM | 29.7 µM | > 100 µM | 20.8 µM | 46.7 µM | 29.1 µM | 82.9 µM | 20.3 µM | 48.2 µM | 21.3 µM | 43.7 µM | – | – |
| COc1ccc2nc3cc(Cl)ccc3c(Nc3cc(CN4CCCC4)c(O)c(CN4CCCC4)c3)c2n1 | 2.43 µM | 13.6 µM | 1.69 µM | 10.3 µM | – | – | 1.64 µM | 6.51 µM | 1.55 µM | 3.24 µM | 1.71 µM | 3.26 µM | – | – | 1.04 µM | 5.83 µM | 1.87 µM | 11.4 µM | 0.41 µM | 2.51 µM |
| COC(=O)C1CCc2nnc(-c3ccccc3)n21 (stereo not given) | – | – | – | > 100 µM | – | – | – | – | – | > 100 µM | – | > 100 µM | – | > 100 µM | – | > 100 µM | – | > 100 µM | – | > 100 µM |
| c1ccc(OC2=NC3=S(S2)SC(Oc2ccccc2)=N3)cc1 | – | – | – | 42.5 µM | – | – | – | – | – | 90.4 µM | – | 34.7 µM | – | 75 µM | – | 33.4 µM | – | 30.6 µM | – | 31 µM |
| CC[PH+](CC)CC.[Cl][Au] | – | – | 1.61 µM | 3.32 µM | – | – | – | – | 4.49 µM | 9.32 µM | 1.09 µM | 2.36 µM | – | – | 1.84 µM | 3.59 µM | 1.42 µM | 2.74 µM | 0.682 µM | 2.69 µM |
| CC(=O)[CH-]C(=O)c1ccccc1.CC(=O)[CH-]C(=O)c1ccccc1.[O-]c1ccc2c(c1)OCO2.[O-]c1ccc2c(c1)OCO2.[Ti+4] | – | – | 31.6 µM | > 100 µM | – | – | – | – | 24.9 µM | 85 µM | 44 µM | > 100 µM | 32.7 µM | 64.8 µM | 37 µM | > 100 µM | 21.1 µM | 80.7 µM | 15.4 µM | 51.5 µM |
| CC(=O)[O-].N.N.N.N.[Co+3].[O-][Cl+3]([O-])([O-])[O-].[OH3+] | – | – | > 100 µM | > 100 µM | – | – | – | – | – | – | > 100 µM | > 100 µM | > 100 µM | > 100 µM | > 100 µM | > 100 µM | > 100 µM | > 100 µM | > 100 µM | > 100 µM |
| C[C@H]1C=C2C(=O)O[C@H]3CC[C@@H](C1)[C@@]23O | – | – | – | 17.2 µM | – | – | – | – | – | 29.3 µM | – | 22.9 µM | – | 22.5 µM | – | 9.24 µM | – | 12.2 µM | – | > 100 µM |
| CC(=O)Oc1ccc2c(c1)C(=O)c1nc(C)c(C)nc1C2=O | – | – | – | > 100 µM | – | – | – | – | – | > 100 µM | – | > 66.4 µM | – | > 91.7 µM | – | > 100 µM | – | > 96.5 µM | – | > 100 µM |
